Experimental data from patent US9163049B2, “Medicament comprising a reducing alkyl-sugar monomer for the treatment of inflammatory disorders” (PIERRE FABRE DERMO-COSMETIQUE, priority 2003, dated 2015).

Key:
[1] = system: PGE2 released by the NHK stimulated by PMA; experiment: Assay of the PGE2 released by the NHK stimulated by PMA; format: cell-based, human; settings: for Percentage of inhibition of the release of PGE2: NHK + PMA 1 ng/ml, 24 hours
Description: Assay of the PGE2 released by the NHK stimulated by PMA.
Alkyl-rhamnosides were evaluated as an inhibitor of the release of PGE2 in cellular supernatants. These products were placed in the presence of the NHK at the same time as the PMA at 1 ng/ml. Each condition tested was evaluated for stimulation on 4 wells of NHK.
The results summarized in Table 5 below represent the mean PGE2 concentration values (pg/ml), after 24 hours of treatment, given in each of the cellular supernatants, stimulated or not, and reported in a quantity of cells expressed in μg.

keratinocytes = experiment: Toxicity test: viability of keratinocytes; format: cell-based; settings: for % viability: compared to control 100%
Text: (§1) MTT [3-(4,5-[…])-2,5-diphenyl tetrazolium bromide] Reduction Technique (Sold by Sigma).
(§2) This technique corresponds to a colorimetric test allowing quantification of living, metabolically active cells in a non-radioactive manner. MTT is a cationic molecule which is bound to the membranes of mitochondria in a potential-dependant fashion. On the level of the mitochondria, MTT will be reduced to formazan blue by mitochondrial dehydrogenase. The living cells are thus colored blue, in contrast with the dead cells which remain transparent. The measure of viability is then carried out by measurement of the optical density using an automatic reader.
XTT Tetrazolium Salt Reduction Technique.
This is a technique allowing quantification of cellular proliferation and of the number of living (metabolically active) cells, without the incorporation of radioactive isotopes. XTT, yellow in color, is a cationic molecule which is bound to the membranes of mitochondria in a potential-dependant fashion, as does MTT.
On the level of the mitochondria, XTT will be reduced to formazan (orange) by mitochondrial tetrazolium reductase. […] Indeed, the reduction product is soluble within the cell. The method is thus faster. Living cells, in the absence and presence of a treatment become colored, in contrast with dead cells which remain colorless. The level of formazan product is detected with the spectrophotometer at a wavelength of 450 nm and is directly proportional to the number of metabolically active cells.
Keratinocytes were isolated and placed in culture from human skin biopsies arising from anonymous donors following a plastic surgery procedure. Measurements of optical density (absorbance) of the 4 wells treated with the same product concentration were averaged. This average was compared with the average of the measurements obtained for the 4 control wells (Student's t-test comparison of means significant difference at 95% if p<0.05 and 99% if p<0.01).
The viabilities of the treated cells are expressed as a percentage compared to the control (untreated cells) of 100% (OD treated/OD control×100).

HPLNEC.B3 = experiment: Adhesion of lymphocytes on non-activated endothelial cells HPLNEC.B3; format: cell-based
Description: (§3) Adhesion is carried out in vitro under static conditions. The endothelial cells were cultured in wells in order to obtain a monolayer. The cells were pretreated for 5 hours in the presence or absence of alkyl-rhamnosides. As dodecyl-rhamnoside required a content of 0.1% by volume to be soluble in the culture media, a control containing 0.1% glycerol was also analyzed.
(§4) The suspension of labeled lymphocytes was at a concentration making it possible to obtain a ratio of 5 lymphocytes per endothelial cell. Adhesion was carried out for 30 minutes at ambient temperature. The label binds irreversibly to the lipids of the plasma membrane of the cells without affecting the biological properties of the membrane or cellular viability.
(§5) The adhesion of the lymphocytes on the endothelial cells was quantified by flow cytometry.

HAPEC = experiment: Adhesion of lymphocytes on non-activated endothelial cells HAPEC; format: cell-based
Description: as §3, §4, §5

[2] = system: proliferation of lymphocytes in auricular lymphatic ganglia; settings: in vivo
Description: (§7) This test determines the sensitizing capacity of the test substance by measuring the proliferation of lymphocytes in auricular lymphatic ganglia. The proliferation of lymphocytes will be measured by determining the incorporation of tritiated methyl thymidine.

[3] = system: proliferation of lymphocytes in auricular lymphatic ganglia; experiment: Sensitizing capacity by the LLNA method (local lymph node assay)
Description: as §7

HMLNEC = experiment: Adhesion of lymphocytes on non-activated endothelial cells HMLNEC; format: cell-based
Description: as §3, §4, §5

[4] = system: HSkMEC activated with TNF-α; experiment: Adhesion between lymphocytes and TNF-α activated endothelial cells (HSkMEC); format: cell-based; settings: for Control/TNF ratio / adhesion between lymphocytes and endothelial cells, TNF: HSkMEC; for adhesion between lymphocytes and endothelial cells, TNF: control in medium = 1.000
Description: (§6) The influence of alkyl-rhamnosides on adhesion between lymphocytes and […] endothelial cells, in particular the line of endothelial cells arising from the skin (HSkMEC), was evaluated. These cells were placed in the presence of a strong activator, TNF-α.
as §3, §4, §5
The results of adhesion between lymphocytes and activated endothelial cells, summarized in Table 5 below, arise from groups of three adhesion tests.

[5] = system: endothelial cells (appendix, brain microvascular, mesenteric lymphatic ganglia, peripheral lymphatic ganglia, skin microvascular); experiment: Cytotoxicity test (MTT) on endothelial cell lines; format: cell-based
Text: as §1, §2
Endothelial cells were placed in culture, immortalized and stabilized in their phenotype. The cell lines studied were appendix endothelial cells, brain microvascular endothelial cells, mesenteric lymphatic ganglia endothelial cells, peripheral lymphatic ganglia endothelial cells and skin microvascular endothelial cells.
The cytotoxicity test was carried out by means of a biochemical test on the transformation of a tetrazolium salt, MTT. […] Viability is indeed always greater than 85%, and this is true for all of the cells lines studied.

HSkMEC = experiment: Adhesion of lymphocytes on non-activated endothelial cells HSkMEC; format: cell-based; settings: for adhesion between lymphocytes and endothelial cells, Medium: HSkMEC, Medium (no TNF), control = 1.000
Description: as §6, §3, §4, §5

HBrMEC = experiment: Adhesion of lymphocytes on non-activated endothelial cells HBrMEC; format: cell-based
Description: as §3, §4, §5

reconstituted epidermis = experiment: Cutaneous irritant potential on reconstituted epidermis; format: cell-based; settings: Rh-C5 concentration 30%, Triton 4%
Text: The evaluation of cutaneous irritant potential on reconstituted epidermis is an alternative to animal experimentation. The principle is based on the evaluation of the irritant potential of the product tested by: • the study of cytotoxicity by quantification of the release of lactate dehydrogenase (LDH) and by reduction of MTT to […], • the study of inflammation markers by quantification of the release of interleukins and IL8.

`CCCCCOC1O[C@@H](C)[C@H](O)[C@@H](O)[C@H]1O` (stereo partly shown) [Rh-C5, pentyl-rhamnoside] was tested, and the “Percentage of inhibition of the release of PGE2” value ([1]; 0.02 mg/ml) was 29%, the “Percentage of inhibition of the release of PGE2” value ([1]; 0.05 mg/ml) was 61% and the “Percentage of inhibition of the release of PGE2” value ([1]; 0.1 mg/ml) was 64%. For the same molecule, the “Percentage of inhibition of the release of PGE2” value ([1]; 1 mg/ml) was 89%, the “concentrations at which cytotoxicity is exhibited” value (keratinocytes) was “greater than 2 mg/ml” and the “% viability” value (keratinocytes; 0.1 mg/ml) was 94%. For the same molecule, the “% viability” value (keratinocytes; 1 mg/ml) was 74%, the “% viability” value (keratinocytes; 2 mg/ml) was 53% and the “% viability” value (keratinocytes; 5 mg/ml) was 40%. For the same molecule, the “increase in adhesion of lymphocytes” value (HPLNEC.B3; 1.1 mM) was 37.9%, the “effect on adhesion of lymphocytes” value (HAPEC; 1.1 mM) was “no effect or a very slight effect” and the “Conclusion (sensitizing capacity)” value [2] was “Not sensitizing”. For the same molecule, the sensitizing capacity [2] was “not sensitizing”, the DPM/Ganglion ([3]; Concentration 1: 3%) was 1240.2 DPM/Ganglion and the RATIO ([3]; Concentration 1: 3%) was 0.7. The DPM/Ganglion ([3]; Concentration 2: 15%) was 1041.1 DPM/Ganglion, the RATIO ([3]; Concentration 2: 15%) was 0.6 and the DPM/Ganglion ([3]; Concentration 3: 30%) was 797.3 DPM/Ganglion. For the same molecule, the RATIO ([3]; Concentration 3: 30%) was 0.5, the “increase in adhesion of lymphocytes compared to rhamnose” value (HMLNEC; 1.1 mM) was 96.7% and the Control/TNF ratio [4] was 1.6. The “adhesion between lymphocytes and endothelial cells, TNF” value [4] was 3.100, the Viability ([5]; all of the cells lines studied) was “greater than 85%” and the toxicity ([5]; endothelial cell lines) was “no toxicity”. The “inhibiting effect on the adhesion of lymphocytes compared to rhamnose” value (HSkMEC; 1.1 mM, non-activated HSkMEC) was 37.3%, the “adhesion between lymphocytes and endothelial cells, Medium” value (HSkMEC) was 1.900 and the “effect on adhesion of lymphocytes” value (HBrMEC; 1.1 mM) was “no effect or a very slight effect”.
With `CCCCCCCCCCCOC1O[C@@H](C)[C@H](O)[C@@H](O)[C@H]1O` (stereo partly shown) [Rh-C11, undecyl-rhamnoside] the “Percentage of inhibition of the release of PGE2” value ([1]; 0.01 mg/ml) was 28%, the “Percentage of inhibition of the release of PGE2” value ([1]; 0.02 mg/ml) was 28% and the “activity (inhibition of PGE2 release)” value ([1]; in the range of 20 μg/ml) was “activity comparable to pentyl-rhamnoside”. The “% viability” value (keratinocytes; 10 μg/ml) was 81%, the “% viability” value (keratinocytes; 100 μg/ml) was 17% and the “% viability” value (keratinocytes; 250 μg/ml) was 11%. For the same molecule, the “% viability” value (keratinocytes; 500 μg/ml) was 30%.
`C[C@H](O)[C@H](O)[C@@H](O)[C@@H](O)C=O` [Rhamnose, rhamnose, reference compound] was tested, and the “% viability” value (keratinocytes; 0.001 mg/ml) was 95%, the “% viability” value (keratinocytes; 0.01 mg/ml) was 100% and the “% viability” value (keratinocytes; 0.1 mg/ml) was 98%. The “% viability” value (keratinocytes; 1 mg/ml) was 104%, the cytotoxicity (keratinocytes; even for the highest concentrations) was “does not exhibit cytotoxicity” and the Control/TNF ratio [4] was 1.5. The “adhesion between lymphocytes and endothelial cells, TNF” value [4] was 2.450 and the “adhesion between lymphocytes and endothelial cells, Medium” value (HSkMEC) was 1.630.
`CCCCCCCCCCCCOC1O[C@@H](C)[C@H](O)[C@@H](O)[C@H]1O` (stereo partly shown) [dodecyl-rhamnoside] was tested, and the “effect on adhesion of lymphocytes” value (HPLNEC.B3; 1.5 mM) was “no effect”, the “increase in adhesion of lymphocytes” value (HAPEC; 1.5 mM) was 44.1% and the “effect on adhesion of lymphocytes” value (HMLNEC; 1.5 mM) was “no effect”. For the same molecule, the inhibition of adhesion ([4]; 1.5 μM, endothelial cells) was 63%, the Control/TNF ratio [4] was 0.59 and the “adhesion between lymphocytes and endothelial cells, TNF” value [4] was 1.900. The “decrease of the adhesion of lymphocytes” value (HSkMEC; 1.5 mM, non-activated HSkMEC) was 34.2%, the “adhesion between lymphocytes and endothelial cells, Medium” value (HSkMEC) was 3.200 and the “effect on adhesion of lymphocytes” value (HBrMEC; 1.5 mM) was “no effect”.
Triton [reference compound] showed an IL1α ratio (reconstituted epidermis; 24 hours of application) of 36.0, an IL8 ratio (reconstituted epidermis; 24 hours of application) of 3.7 and an LDH ratio (reconstituted epidermis; 24 hours of application) of 124.7. It also gave an MTT % viability (reconstituted epidermis; 24 hours of application) of 3.0%, an IL1α ratio (reconstituted epidermis; 72 hours of application) of 7.2 and an IL8 ratio (reconstituted epidermis; 72 hours of application) of 0.9. The LDH ratio (reconstituted epidermis; 72 hours of application) was 77.3, the MTT % viability (reconstituted epidermis; 72 hours of application) was 1.5% and the “Classification (cutaneous irritant potential)” value (reconstituted epidermis) was “irritant”.
With octadecyl-rhamnose [Rh-C18] the “Percentage of inhibition of the release of PGE2” value ([1]; 0.02 mg/ml) was 2%.
